Data set [1] in a line: Check of Glutaraldehyde content when combined with BAK at the CMC. The class given is physicochemical. An excerpt: The multi-level mechanism of action is as follows. The Glutaraldehyde produces an inherent bacteriocidal effect. BAK lowers surface tension and thus aids in the spread of the Glut on the biofilm covered surface and serves as a binding agent between the Glut and the application surface. The BAK spreads the Glutaraldehyde on the cell surface and increases depth of penetration. Thus, the BAK and Glutaraldehyde are mutually synergistic in attacking and achieving the desired kill effect. Because BAK is a quaternary ammonium salt one would suppose that it would react adversely with the Glutaraldehyde and cause aldehyde consumption. For this reason it became mandatory to check the Glutaraldehyde content and determine if there was a decrease at the CMC. […] This is likely correct due to the small BAK concentration necessary to reach the CMC. […] As a matter of fact it acted synergistically to enhance cidal effects due to its surfactant action.

In data set [2] the test system is E. Coli, P. aeruginosa, salmonella typhii, and kiebsiella. Briefly: MIC of disinfectants by agar dilution. The class given is cell-based. Conditions: individually determined. As to the method: In addition to the foregoing, E. Coli, P. aeruginosa, salmonella typhii, and kiebsiella were tested using selective media and biochemical means. Disk diffusion methods were used testing disinfectant resistance by measuring zones of inhibition after eighteen hours of incubation. MICs of disinfectants were determined by agar dilution. […] The preferred determined exposure is actually 4× of Glut to BAK as determined by log reduction effectiveness. This was supported by running an MIC (inhibitory) versus a MBC (bactericidal) test. Using the McFarland standard on E. coli, with the combination Glut/BAK, the result was that the bactericidal amount was 2× the inhibitory amount in ppm. This was done via serial dilutions on media Nutrient Broth.
(In general: In agar dilution the substance is mixed into plates at graded concentrations.)

Another data set concerns biofilm. The conditions noted are these: Flow Cytometry, MetaMorph image analysis; cited from earlier work. In general terms: A flow cytometer gives signals particle by particle.
For data set [3], the system named is biofilm communities of E. faecalis. Briefly: Biofilm formation / LIVE/DEAD staining assay on E. faecalis biofilm communities. The format is cell-based. The conditions noted are these: components tested separately. An excerpt: In experiments, biofilm communities of E. faecalis were created following the techniques of Bergenholtz and Chavez, J. Endo. Coating (2010), using the present formulation. […] This was confirmed by a staining LIVE/DEAD assay. […] Clearly, Glutaraldehyde alone is not as effective as BAK, nor vice versa. Together in “proper ratio” the formula is outstanding at reducing biofilm as well as killing the necessary bacteria. This synergy was confirmed by the fractional inhibitory concentration index (FICI). The FICI for a synergistic mixture, using checkerboard, gave the combination of Glut/BAK a 0.35 FICI which is inhibitory. [Greene et al., App Env Micro Vol 72: 5254-5259 (2006)]. Mixtures according to this test are synergistic when the lowest FICI is below 0.8 therefore giving credence to the present concept. Synergy of Glut/BAK is known but has not been fully tested since the tested material has been Glut/Quats (dual chains) and not BAK. […] The present determination of 4:1 (Glut:BAK), FICI independently determined, corrects this missing component to make an effective formulation. Strong synergy has been shown between Glut/BAK (FICI 0.35). The biofilm reduction/penetration ability of BAK combined with the broad spectrum biocidal activities of Glut enable and achieve, at lower concentrations, due to synergy, the destruction of the SRBs in oil/gas as well the pertinent bacteria in health care.
This was confirmed by the staining LIVE/DEAD assay. […] Glutaraldehyde alone is not as effective as BAK. Together in proper ratio the formula is outstanding at reducing biofilm as well as killing the necessary bacteria, and provides an excellent synergistic complimentary approach to eliminating the bacterial/biofilm problem.

Data set [4] can be described thus: Pendant drop surface tension measurement (Tate's equation). The class given is physicochemical. The conditions noted are these: pendant drop method, ten drops. From the text: BAK's ability to repel biofilm formation as well as penetrate is based upon the physico/chemical and steric changes provoked by hydrophobic changes and electrostatic repulsion. This is due to the positively charged nitrogen that reacts with the acidic phospholipids in the cell membrane. This is the area of penetration bringing along the Glut (cidal component) increasing surface pressure which decreases the adhesive potential by affecting the osmoregularity of bacterial adhesins. […] The BAK molecules at the proper concentration are saturated or at the critical micelle concentration (CMC). When the BAK is above the CMC and the surface tension is constant the best wetting properties are achieved. The stated BAK concentration is important since low doses can actually stimulate metabolic reactions as well as cause resistance. Again the proper importance of “concentration ratios” develops the full synergistic effect. In an example the pendant drop method was used to determine surface tension activity of BAK. Ten drops were measured with a precision balance to calculate surface energy. Tate's equation was used for calculation. It was concluded that the surface tension was reduced by approximately 53%. This illustrates that the addition of the BAK to the formulation permits a better spreading of the solution.

Regarding `O=CCCCC=O` [Glutaraldehyde], in data set [1], the “reduction in Glutaraldehyde content when combined with BAK” value is listed as “did not show any reduction”. For the same molecule, the MIC in data set [2] was 0.3%. Also, the penetration of biofilm result with biofilm was “little or no penetration of biofilm”. The “kill (LIVE/DEAD staining)” value in data set [3] is 45%.
In the case of benzalkonium chloride [BAK], in data set [2], the MIC is 0.13%. The penetration of biofilm result in the data set with biofilm is “peripheral penetration followed by inward migration”. In data set [3], the bio-volume reduction result is listed as “over 70 fold” and the “kill (LIVE/DEAD staining)” value is “less so”. Also, the surface tension reduction result in data set [4] is reported as “approximately 53%”.

Values taken from US9955688B2, “Biocidal aldehyde composition” (priority 2015, dated 2018).
